# Measured values taken from patent US4667032A, “Phenothiazone derivatives and analogs” (Merck Frosst Canada, Inc., priority 1985, dated 1987).
# What was measured:
# [1] = tested on: Mouse peritoneal macrophages; assay: Mouse Macrophage Assay (leukotriene C4 / PGE2 / 6-keto PGF1α formation, zymosan stimulated); assay type: cell-based; details: at 0.05 mg/ml, read-out: Macrophage, % at stated concentration
# Description: Mouse peritoneal macrophages were treated sequentially with arachidonic acid (labelled with tritium); the compound being evaluated as an inhibitor, and a stimulator (zymosan). Metabolites derived from arachidonic acid PGE2 6-keto PH-F1α and leukotriene C4) were separated from the incubation medium by extraction and chromatography, and then quantitated by determining the amount of radioactivity (cpm) associated with each of them. […] (This protocol is identical to that described in the reference except that the radioactivity herein associated with the LTC4 was determined by counting an aliquot of the final aqueous solution directly rather than chromatographing it first).
# Reference: Humes, J. L. et al., J. Biol. Chem. 257, 1591-4, (1982).
# [2] = tested on: tracheal chain of sensitized guinea pigs; assay: Antigen Challenge 'in vitro' Assay (egg albumin contraction of sensitized guinea pig tracheal chain); details: Table 4
# [3] = tested on: tracheal chain of sensitized guinea pigs; assay: as above; details: 10 μg (μg/ml)
# Description: Male guinea pigs weighing 300-350 g were sensitized by injecting (I.P.) 0.5 ml of a suspension containing 0.4 mg of egg albumin (Ovalbumin, Grade V, Sigma Chemical Co.) and 4.0 g aluminum hydroxide in 19.6 ml of saline. Two weeks were permitted for sensitization to occur.
# Three sensitized guinea pigs were stunned and exsanguinated. The tracheas were removed, freed of adhering tissue and divided longitudinally by cutting through the cartilaginous tissue directly opposite the muscle insertion. Each opened trachea was then transected between every second cartilage. Four of the cut sections were tied together, end to end, in a series with No. 7 silk thread ensuring that the tracheal muscles were all in the same vertical plane. Thus, each chain consisted of tissue from three different animals.
# The chain so formed was then suspended under 1 g of tension (by silk ties at each end) in a 20 ml organ bath containing 10 ml of modified* Krebs-Henseleit buffer solution gassed with 95% O2 and 5% CO2 at 37° C. Mepyramine (0.55 μg/ml) and indomethacin (2.67 μg/ml) were added to the buffer to avoid the contribution of histamine receptors and cyclooxygenase products to the contraction. To record responses one end of the tracheal chain was attached to a Gould-Statham UC-2 force displacement transducer which was connected to a Beckman Type R-dynograph.The preparations were allowed to equilibrate for one hour during which time the tissues were automatically washed (10 ml volume displacement) every 6 minutes.
# After the equilibration period the tissues were primed with methacholine (3 μg/ml; 1.5×10^-5 M), washed and allowed to recover to baseline. The tissues were treated again with a second dose of methacholine, washed, allowed to return to baseline and washed for an additional hour.
# Two chains were used as a control. These were incubated in a concentration of egg albumin sufficient to induce an average contraction of 50-80% of the methacholine response.
# Each compound to be tested was added to two other baths (at a final concentration in each bath of 10 μg/ml) 15 minutes prior to challenging the fresh chains with egg albumin.
# The response of the challenged tissue was expressed as a percentage of the methacholine maximum. The % inhibition for each compound was then calculated. Compounds which at 10 μg/ml (final conc.) inhibited the egg albumin response by 50% or more were retested at a lower concentration.
# asthmatic rats = assay: Asthmatic Rat Assay (duration of dyspnoea after egg albumin aerosol); assay type: in vivo; details: for ED50: Rattus norvegicus; for % inhibition (Ed50 column): p.o.
# Excerpt: Rats were obtained from an inbred line of asthmatic rats. Both female and male rats from 200 to 300 g were used.
# Egg albumin (EA), grade V, crystallized and lyophilized, was obtained from Sigma Chemical Co., St. Louis. Bordetella pertussis vaccine, containing 30×10^9 killed bacteria per ml was obtained from the Institut Armand-Frappier, Laval des Rapides, Quebec. Aluminum hydroxide was obtained from the Regis Chemical Company, Chicago.
# The challenge and subsequent respiratory recordings were carried out in a clear plastic box with internal dimensions 10×6×4 inches. The top of the box was removable; in use, it was held firmly in place by four clamps and an airtight seal was maintained by a soft rubber gasket. […] A Fleisch No. 0000 pneumotachograph was inserted into one end of the box and coupled to a Grass volumetric pressure transducer (PT5-A) which was then connected to a Beckman Type T Dynograph through appropriate couplers. While aerosolizing the antigen, the outlets were open and the pneumotachograph was isolated from the chamber. The outlets were closed and the pneumotachograph and the chamber were connected during the recording or the respiratory patterns. For challenge, 2 ml of a 3% solution of antigen in saline was placed into each nebulizer and the aerosol was generated with air from a small Potter diaphragm pump operating at 10 psi and a flow of 8 liters/minute.
# Rats were sensitized by injecting (s.c.) 1 ml of a suspension containing 1 mg EA and 200 mg aluminum hydroxide in saline. Simultaneously, they received an injection (i.p.) of 0.5 ml of B. pertussis vaccine. They were used between days 14 and 18 postsensitization. In order to eliminate the serotonin component of the response, rats were pretreated intravenously 5 minutes prior to aerosol challenge with […] methylserzide. Rats were then exposed to an aerosol of 3% EA in saline for exactly 1 minute, then their respiratory profiles were recorded for a further 25-30 minutes. The duration of continuous dyspnoea was measured from the respiratory recordings.
# Compounds were generally administered either intraperitoneally 1 hour prior to challenge or orally 11/2 hours prior to challenge. They were either dissolved in dimethylsulfoxide or suspended in 0.1% methocel and 0.5% Tween 80. The volume injected has 2 ml/kg (intraperitoneally) or 10 ml/kg (orally). Prior to oral treatment rats were starved overnight. Their activity was determined in terms of their ability to decrease the duration of symptoms of dyspnoea in comparison with a group of vehicle-treated controls. Usually, a compound was evaluated at a series of doses and an ED50 was determined. This was defined as the dose (mg/kg) which would inhibit the duration of symptoms by 50%.
# [4] = tested on: rat paw, PAF-induced hyperalgesia; assay: PAF-Induced Hyperalgesia Assay; assay type: in vivo, Female Sprague-Dawley rats; details: for Vocalization Threshold: 3 hr after PAF, Mean ± S.E.M., n = 10
# Description: Female Sprague-Dawley rats, 35-40 g were fasted overnight. Platelet activating factor, PAF, (L-lecithin B-acetyl O-alkyl) 1 μg/0.1 ml was given by subplantar injection in the rat paw. The compounds to be evaluated were homogenized in Aqueous Vehicle (0.9% benzyl alcohol, 0.5% Tween 80 and 0.4% methylcellulose) and administered orally in a volume of 0.1 ml, 30 minutes prior to PAF.
# Animals were tested 1, 2, 3 and 4 hours after PAF administration. The vocalization threshold, defined as the pressure (mmHg) needed to evoke a squeak response, was recorded for both the injected and contralateral paw. No animal was subjected to pressure greater than 60 mmHg. Hyperalgesia is defined as a decrease in vocalization threshold as compared to a normal paw. Percent inhibition of hyperalgesia was calculated as the proportion of animals with vocalization thresholds greater than 200% of controls.
# ^a mmHg Mean ± S.E.M., n = 10 Reading taken 3 hr after injection o
# PAF, (3.5 hr. after administration of compound).
# [5] = tested on: rat paw, Brewer's yeast hyperalgesia; assay: Brewer's Yeast Hyperalgesia Assay; assay type: in vivo, Female Sprague-Dawley rats; details: for Vocalization Threshold: mean, n = 10
# Description: The standard method* for yeast hyperalgesia was used. Female Sprague-Dawleyrats, […] were fasted overnight. A 5% solution (volume 0.1 ml) of Brewer's yeast was injected into the rat paw. The compound was homogenized in aqueous vehicle and given orally 2 hours after yeast. Vocalization thresholds were recorded 1 hours after drug (3 hours after yeast).
# ^a mmHg: mean ± S.E.M. n = 10
compound,measurement,setting,value
Cc1cc2nc3ccc(N(C)C)cc3sc-2cc1=N,inhibition at 50 µg/mL,[1],10%
same,In Vitro Antigen Challenge Test % Inhibition,[2]; 10 mg (mg/ml),24%
"4-Chloro-2,7-dimethoxy-3H-phenothiazin-3-one [Example 3]",In Vitro Antigen Challenge Test % Inhibition,[3],25%
"4-Chloro-2,7-dimethyl-3H-phenothiazin-3-one [Example 5]",In Vitro Antigen Challenge Test % Inhibition,[3],45%
4-Chloro-7-methyl-3H-phenothiazin-3-one [Example 7],In Vitro Antigen Challenge Test % Inhibition,[2]; 10 mg (mg/ml),37%
7-Fluoro-2-methoxy-3H-phenothiazin-3-one [Example 13],In Vitro Antigen Challenge Test % Inhibition,[2]; 3 mg (mg/ml),54%
7-Fluoro-3H-phenothiazin-3-oone [Example 11],In Vitro Antigen Challenge Test % Inhibition,[2]; 3 mg (mg/ml),23%
O=c1ccc2nc3ccccc3sc-2c1Cl [B],ED50,asthmatic rats; po,1.5 mg/kg
O=c1ccc2nc3ccccc3sc-2c1 [C],ED50,asthmatic rats; ip,~5 mg/kg
COc1ccc2nc3cc(OC)c(=O)c(Br)c-3sc2c1 [D],ED50,asthmatic rats; po,1 mg/kg
O=C1C=CC2=Nc3ccccc3S(=O)(=O)C2=C1O [E],% inhibition (Ed50 column),asthmatic rats; at 1.5 mg/kg,37%
"O=c1ccc2nc3ccccc3sc-2c1Cl [Example 2, 4-Chloro-3H-phenothiazin-3-one]",% Inhibition,"[4]; Experiment 1, 0.01 mg/kg p.o.",40%
same,Vocalization Threshold,"[4]; Experiment 1, 0.01 mg/kg p.o.",28.2 ± 5.2 mmHg
same,% Inhibition,"[4]; Experiment 1, 0.03 mg/kg p.o.",80%
same,Vocalization Threshold,"[4]; Experiment 1, 0.03 mg/kg p.o.",40.2 ± 5.0 mmHg
same,% Inhibition,"[4]; Experiment 1, 0.1 mg/kg p.o.",80%
same,Vocalization Threshold,"[4]; Experiment 1, 0.1 mg/kg p.o.",37.4 ± 3.9 mmHg
same,% Inhibition,"[4]; Experiment 1, 0.3 mg/kg p.o.",90%
same,Vocalization Threshold,"[4]; Experiment 1, 0.3 mg/kg p.o.",45.4 ± 3.7 mmHg
same,% Inhibition,"[4]; Experiment 1, 3.0 mg/kg p.o.",100%
same,Vocalization Threshold,"[4]; Experiment 1, 3.0 mg/kg p.o.",46.0 ± 3.0 mmHg
same,% Inhibition,"[4]; Experiment 2, 0.001 mg/kg p.o.",0%
same,Vocalization Threshold,"[4]; Experiment 2, 0.001 mg/kg p.o.",10.0 ± 1.6 mmHg
same,% Inhibition,"[4]; Experiment 2, 0.003 mg/kg p.o.",30%
same,Vocalization Threshold,"[4]; Experiment 2, 0.003 mg/kg p.o.",16.4 ± 2.8 mmHg
same,% Inhibition,"[4]; Experiment 2, 0.01 mg/kg p.o.",30%
same,Vocalization Threshold,"[4]; Experiment 2, 0.01 mg/kg p.o.",18.0 ± 2.9 mmHg
same,% Inhibition,"[4]; Experiment 2, 0.1 mg/kg p.o.",60%
same,Vocalization Threshold,"[4]; Experiment 2, 0.1 mg/kg p.o.",29.6 ± 4.4 mmHg
same,% Inhibition,[5]; 0.3 mg/kg p.o.,30%
same,Vocalization Threshold,[5]; 0.3 mg/kg p.o.,17.6 mmHg
same,% Inhibition,[5]; 1.0 mg/kg p.o.,30%
same,Vocalization Threshold,[5]; 1.0 mg/kg p.o.,19.4 mmHg
same,% Inhibition,[5]; 3.0 mg/kg p.o.,60%
same,Vocalization Threshold,[5]; 3.0 mg/kg p.o.,30.0 mmHg
same,% Inhibition,[5]; 10.0 mg/kg p.o.,70%
same,Vocalization Threshold,[5]; 10.0 mg/kg p.o.,28.6 mmHg
same,% Inhibition,[5]; 30.0 mg/kg p.o.,80%
same,Vocalization Threshold,[5]; 30.0 mg/kg p.o.,32.6 mmHg
O=c1cc2sc3ccccc3nc-2c2ccccc12 [F],% inhibition (Ed50 column),asthmatic rats; at 5 mg/kg,36%
O=c1ccc2nc3ccccc3sc-2c1Cl [drawing 40],ED50,asthmatic rats; ip,0.5 mg/kg
